Assay results: patent US20080153872A1, “Bis-(Coumarin) Compounds With Anti-Inflammatory Activity” (priority 2005, published 2008)

Columns and labels:
human 5-LO = molecular target: T1, human 5-LO (Homo sapiens, UniProt P09917); experiment: Human 5-Lipoxygenase, 5-LO, assay in peripheral mononuclear blood cells; type: cell-based; settings: 10 μM concentration, LTB4 readout
T1 construct: Human peripheral mononuclear blood cells were isolated using Ficoll density separation; endogenous in cells; host or cells: human peripheral blood mononuclear cells
T1 sequence (P09917 1-674): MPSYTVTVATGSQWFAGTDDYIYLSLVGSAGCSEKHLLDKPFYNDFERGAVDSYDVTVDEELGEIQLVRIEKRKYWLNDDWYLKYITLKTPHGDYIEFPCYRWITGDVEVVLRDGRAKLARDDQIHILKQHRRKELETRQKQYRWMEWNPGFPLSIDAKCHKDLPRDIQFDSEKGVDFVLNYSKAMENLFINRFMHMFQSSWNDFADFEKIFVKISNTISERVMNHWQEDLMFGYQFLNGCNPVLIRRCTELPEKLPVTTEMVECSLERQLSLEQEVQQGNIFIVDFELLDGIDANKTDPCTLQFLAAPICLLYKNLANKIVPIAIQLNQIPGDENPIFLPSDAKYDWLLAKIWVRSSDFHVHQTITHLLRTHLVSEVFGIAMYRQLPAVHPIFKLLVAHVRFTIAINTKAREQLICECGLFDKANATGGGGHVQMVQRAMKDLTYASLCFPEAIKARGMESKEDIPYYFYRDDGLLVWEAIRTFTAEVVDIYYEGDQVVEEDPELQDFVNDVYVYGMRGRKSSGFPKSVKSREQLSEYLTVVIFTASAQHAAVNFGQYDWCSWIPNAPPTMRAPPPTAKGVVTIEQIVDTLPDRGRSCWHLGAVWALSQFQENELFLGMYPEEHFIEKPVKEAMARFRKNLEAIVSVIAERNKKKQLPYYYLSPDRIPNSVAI
Method: (§1) All compounds were dissolved in dimethyl sulfoxide (DMSO). Final concentration of the DMSO in all tests was 1% (v/v). Inhibition in all tests is considered preferred if it exceeds 50% at 10 μM concentration (or less).
Human peripheral mononuclear blood cells were isolated using Ficoll density separation. Cells were incubated in Hanks Balanced Salt Solution (HBSS) with compounds for 15 minutes at 37° C. Substrate (arachidonic acid) was added in 20 μM final concentration and cells were incubated for another 15 minutes. LTB4 as a final product of arachidonic acid metabolism was measured using competitive enzyme immunoassay (See, e.g., Safayhi, H. et al. Planta Medica 2000, 66, 110-113) and percentage of inhibition was calculated from the levels of LTB4 in cell supernatant.

TxA2 receptor = molecular target: T2, TxA2 receptor (Homo sapiens, UniProt P21731); experiment: Human thromboxane A2, TxA2, assay (SQ-29548 competition); type: binding; settings: 10 μM concentration; HEK-293
T2 construct: expressed in transfected cells; host or cells: HEK-293
T2 sequence (P21731 1-343): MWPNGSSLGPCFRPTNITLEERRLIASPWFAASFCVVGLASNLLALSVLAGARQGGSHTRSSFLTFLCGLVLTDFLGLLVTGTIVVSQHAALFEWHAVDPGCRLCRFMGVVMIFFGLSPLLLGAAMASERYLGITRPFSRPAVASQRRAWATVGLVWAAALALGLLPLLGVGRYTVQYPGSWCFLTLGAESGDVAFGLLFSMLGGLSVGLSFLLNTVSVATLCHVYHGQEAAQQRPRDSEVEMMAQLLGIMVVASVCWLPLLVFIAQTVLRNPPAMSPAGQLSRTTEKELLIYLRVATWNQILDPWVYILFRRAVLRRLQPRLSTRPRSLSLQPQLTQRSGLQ
Method: as §1
TxA2 receptor is expressed in HEK-293 cell line. Compounds and radiolabelled competitor SQ-29548 are incubated for 30 minutes at 25° C. Level of bound SQ-29548 is measured by scintillation counting, and competition is calculated from the total amount of the bound SQ-29548. […] is an unstable lipid mediator involved in blood clotting, and immune processes.

Balb/C mice = experiment: Ovalbumin induced pulmonary eosinophilia in mice; type: in vivo, mouse; settings: OVA sensitized and challenged mice; i.n., i.p. or per os
Method: Male Balb/C mice with a body weight of 20-25 g are randomly divided into groups, and sensitized by an i.p. injection of ovalbumin (OVA, Sigma) on day zero and day fourteen. On the twentieth day, the mice are subjected to a challenge test by i.n. (intranasal) application of OVA (positive control or test groups) or PBS (negative control). The compounds are administered daily i.n., i.p. or per os in different doses starting 2 days before the challenge and up to the completion of the test. Compounds are administered as suspension either in PBS, methyl cellulose or carboxymethyl cellulose with addition od DMSO (up to 5% of the total volume). 48 hours after i.n. application of OVA, the animals are then anaesthetized to obtain bronchoalveolar lavage fluid (BALF), which is used to determine total protein concentration as well as concentrations of cytokines such as IL-1β and TNF-α, absolute number of cells, and percentage of eosinophils in BALF. Bronchoalveolar lavage (BAL) is performed by infusing 1 mL of PBS divided into 3 separate volumes (0.4, 0.3 and 0.3 ml) through trachea into the lungs. The fluid is immediately withdrawn and the cell suspension stored into previously prepared 1.5 mL Eppendorf tube. Bronchoalveolar lavage fluid (BALF) is then centrifuged at […] for 5 min (4° C.). Cells are resuspended in 700 μL of PBS. To prepare cytospins, 320 μL of suspension is centrifuged at 250 rpm for 10 min (Cytospin-3, Shandon Instruments). Cells are stained with Dif-Quik (Dade Behring) to determine percentage of eosinophils by counting of at least 100 cells. The remaining resuspended cells are used for total cell count in BALF analysis (Sysmex SF 3000). Finally, lungs are sampled and stored into 10% formalin for pathohistological evaluation of eosinophil and mononuclear infiltrate. Accumulation of eosinophils and mononuclear cells in peribronchial (PB) and perivascular (PV) lung tissue areas and in alveolar spaces is monitored.
Results can be expressed as (I) decrease of absolute cell number per mL in BALF, (II) decrease of number of eosinophils per mL in BALF, (III) reduction of relative number (percentage) of eosinophils in BALF, (IV) reduction of cytokine concentrations in BALF, as well as (V) suppression of accumulation of eosinophils and mononuclear cells in peribronchial (PB) and perivascular (PV) lung tissue areas and in alveolar spaces by pathohistological scoring of treated animals compared to positive control (OVA stimulated, but untreated animals).
Fluticasone and beclomethasone are used as standard anti-inflammatory substances, and compared for ability to inhibit eosinophilia to the negative and positive controls.

human PDE3 = molecular target: T3, human PDE3 (Homo sapiens, UniProt Q14432); experiment: Human PDE3 assay (platelets); type: biochemical; settings: 10 μM concentration
T3 construct: Isolated human platelets are pre-incubated at 25° C; from tissue; host or cells: human platelets
Method: as §1
PDE3 assay. Isolated human platelets are pre-incubated at 25° C. in Tris-HCl buffer containing magnesium ions for 15 minutes. 1.01 μM tritium labeled cyclic adenosine monophosphate (cAMP) is added as substrate, followed by incubation at 25° C. for 20 minutes. Percentage of inhibition is calculated by comparing the adenosine levels in supernatant which is formed from cAMP in treated versus control cells.

T3 sequence (Q14432 whole entry): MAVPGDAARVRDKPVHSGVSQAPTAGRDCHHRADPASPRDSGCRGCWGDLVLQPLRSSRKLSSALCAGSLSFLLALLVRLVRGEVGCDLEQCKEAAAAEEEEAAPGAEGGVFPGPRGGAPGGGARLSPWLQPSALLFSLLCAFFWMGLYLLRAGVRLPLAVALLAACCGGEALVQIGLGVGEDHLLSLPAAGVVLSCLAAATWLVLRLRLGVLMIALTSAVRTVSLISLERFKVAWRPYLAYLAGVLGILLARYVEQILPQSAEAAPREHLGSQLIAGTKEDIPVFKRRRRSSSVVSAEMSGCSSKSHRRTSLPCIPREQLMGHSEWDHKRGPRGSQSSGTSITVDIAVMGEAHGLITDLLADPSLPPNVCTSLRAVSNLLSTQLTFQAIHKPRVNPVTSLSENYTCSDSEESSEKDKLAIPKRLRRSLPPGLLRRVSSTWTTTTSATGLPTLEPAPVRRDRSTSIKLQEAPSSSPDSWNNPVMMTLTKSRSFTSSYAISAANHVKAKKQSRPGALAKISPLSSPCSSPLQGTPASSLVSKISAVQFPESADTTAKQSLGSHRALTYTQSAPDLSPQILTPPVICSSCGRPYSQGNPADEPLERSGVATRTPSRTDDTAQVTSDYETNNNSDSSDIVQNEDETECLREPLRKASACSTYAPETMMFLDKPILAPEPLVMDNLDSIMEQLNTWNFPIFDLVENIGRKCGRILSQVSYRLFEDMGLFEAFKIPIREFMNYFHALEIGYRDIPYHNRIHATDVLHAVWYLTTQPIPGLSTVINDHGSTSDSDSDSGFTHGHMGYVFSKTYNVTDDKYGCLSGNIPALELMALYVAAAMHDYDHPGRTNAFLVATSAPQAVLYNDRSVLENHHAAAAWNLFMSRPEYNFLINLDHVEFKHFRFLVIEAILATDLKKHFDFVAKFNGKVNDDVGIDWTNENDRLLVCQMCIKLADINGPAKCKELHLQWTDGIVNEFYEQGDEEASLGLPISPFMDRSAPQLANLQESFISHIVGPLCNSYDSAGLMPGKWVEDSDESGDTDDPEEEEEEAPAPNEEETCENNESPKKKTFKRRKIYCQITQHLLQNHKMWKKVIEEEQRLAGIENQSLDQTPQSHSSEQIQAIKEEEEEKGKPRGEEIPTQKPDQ

SMILES	inhibition of human 5-LO (human 5-LO)	TxA2 receptor, competition with SQ-29548 (TxA2 receptor)	reduction of percentage of eosinophils and/or their total number in BALF and/or by histological scoring (Balb/C mice)	inhibition of human PDE3 activity (human PDE3)
CC(=O)C(c1c(O)c2cccc(C(C)C)c2oc1=O)c1c(O)c2cccc(C(C)C)c2oc1=O [Example 19]	significantly relevant activity	significantly relevant activity	statistically significant reduction	significantly inhibited
CC(C)c1cccc2c(O)c(C(CO)c3c(O)c4cccc(C(C)C)c4oc3=O)c(=O)oc12 [Example 30]	significantly relevant activity	significantly relevant activity	statistically significant reduction	significantly inhibited
CC(C)c1cccc2c(O)c(C(C(=O)OCCO)c3c(O)c4cccc(C(C)C)c4oc3=O)c(=O)oc12 [Example 50]	significantly relevant activity	significantly relevant activity	statistically significant reduction	significantly inhibited
